This is an account of results in publication PMC11233931, “Remodeling tumor‐associated macrophage for anti‐cancer effects by rational design of irreversible inhibition of mitogen‐activated protein kinase‐activated protein kinase 2” (MedComm, 2024).

By inhibition is commonly meant the drop in the measured response relative to a control, in per cent.

Holding throughout (assay): Eurofins kinase selectivity profile against 380 other human recombinant kinases (Table S2)
What all share (type): biochemical

Assay [1] concerns the target T1, 380 human recombinant protein kinases (Homo sapiens, UniProt O95835).
T1 construct: purchased Eurofins (Celle Lévescault)
T1 sequence (O95835 1-1130): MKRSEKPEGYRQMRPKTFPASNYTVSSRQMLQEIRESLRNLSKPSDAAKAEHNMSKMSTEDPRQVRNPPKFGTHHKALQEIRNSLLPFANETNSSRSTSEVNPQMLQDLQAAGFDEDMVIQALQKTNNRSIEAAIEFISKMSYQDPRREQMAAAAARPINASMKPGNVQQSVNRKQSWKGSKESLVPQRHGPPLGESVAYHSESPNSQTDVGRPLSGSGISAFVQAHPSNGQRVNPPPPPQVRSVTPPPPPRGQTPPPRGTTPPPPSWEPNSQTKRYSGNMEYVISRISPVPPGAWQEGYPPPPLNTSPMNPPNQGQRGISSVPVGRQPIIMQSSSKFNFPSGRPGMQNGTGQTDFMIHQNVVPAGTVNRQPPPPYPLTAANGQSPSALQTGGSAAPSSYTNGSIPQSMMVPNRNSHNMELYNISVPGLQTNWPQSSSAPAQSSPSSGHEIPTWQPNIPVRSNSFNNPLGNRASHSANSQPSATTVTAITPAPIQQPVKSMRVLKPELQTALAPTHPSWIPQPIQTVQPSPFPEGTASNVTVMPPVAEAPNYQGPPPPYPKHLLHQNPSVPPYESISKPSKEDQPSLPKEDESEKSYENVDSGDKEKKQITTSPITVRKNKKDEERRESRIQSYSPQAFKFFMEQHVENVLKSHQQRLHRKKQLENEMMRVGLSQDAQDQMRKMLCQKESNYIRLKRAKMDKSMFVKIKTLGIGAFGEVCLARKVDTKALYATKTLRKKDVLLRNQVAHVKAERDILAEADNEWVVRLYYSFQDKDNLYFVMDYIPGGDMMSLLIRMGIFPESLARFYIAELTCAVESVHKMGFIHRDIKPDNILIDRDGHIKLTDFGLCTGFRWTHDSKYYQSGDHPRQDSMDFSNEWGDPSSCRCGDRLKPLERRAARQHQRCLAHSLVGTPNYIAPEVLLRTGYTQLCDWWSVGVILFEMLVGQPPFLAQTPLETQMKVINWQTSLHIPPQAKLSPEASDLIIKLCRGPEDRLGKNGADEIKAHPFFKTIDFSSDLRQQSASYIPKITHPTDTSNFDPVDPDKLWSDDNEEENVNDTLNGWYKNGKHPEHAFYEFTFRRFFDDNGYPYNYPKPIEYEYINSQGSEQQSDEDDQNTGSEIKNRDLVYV
To be noted: LATS1(h), read-out: Inhibition rate. The method, boiled down: (§1)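 The inhibitor was sent to a contract lab and screened at various concentrations against 380 human recombinant protein kinases. This served as a counter-screen for MK2 specificity.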

The target of assay [2] is T2, 380 human recombinant protein kinases (Homo sapiens, UniProt P11309).
T2 construct: purchased Eurofins (Celle Lévescault)
T2 sequence (P11309 whole entry): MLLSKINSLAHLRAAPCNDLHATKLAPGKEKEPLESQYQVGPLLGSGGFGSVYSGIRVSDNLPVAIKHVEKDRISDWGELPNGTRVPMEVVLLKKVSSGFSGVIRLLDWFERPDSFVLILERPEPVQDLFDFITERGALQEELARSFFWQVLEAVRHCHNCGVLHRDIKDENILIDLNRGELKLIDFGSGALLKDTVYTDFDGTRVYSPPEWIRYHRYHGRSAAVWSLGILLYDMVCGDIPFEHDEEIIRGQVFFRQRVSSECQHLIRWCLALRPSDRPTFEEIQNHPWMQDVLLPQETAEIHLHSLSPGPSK
To be noted: Pim-1(h), read-out: Inhibition rate. The procedure, abridged: as §1

The target in assay [3] is T3, 380 human recombinant protein kinases (Homo sapiens, UniProt Q16620).
T3 construct: purchased Eurofins (Celle Lévescault)
T3 sequence (Q16620 32-822): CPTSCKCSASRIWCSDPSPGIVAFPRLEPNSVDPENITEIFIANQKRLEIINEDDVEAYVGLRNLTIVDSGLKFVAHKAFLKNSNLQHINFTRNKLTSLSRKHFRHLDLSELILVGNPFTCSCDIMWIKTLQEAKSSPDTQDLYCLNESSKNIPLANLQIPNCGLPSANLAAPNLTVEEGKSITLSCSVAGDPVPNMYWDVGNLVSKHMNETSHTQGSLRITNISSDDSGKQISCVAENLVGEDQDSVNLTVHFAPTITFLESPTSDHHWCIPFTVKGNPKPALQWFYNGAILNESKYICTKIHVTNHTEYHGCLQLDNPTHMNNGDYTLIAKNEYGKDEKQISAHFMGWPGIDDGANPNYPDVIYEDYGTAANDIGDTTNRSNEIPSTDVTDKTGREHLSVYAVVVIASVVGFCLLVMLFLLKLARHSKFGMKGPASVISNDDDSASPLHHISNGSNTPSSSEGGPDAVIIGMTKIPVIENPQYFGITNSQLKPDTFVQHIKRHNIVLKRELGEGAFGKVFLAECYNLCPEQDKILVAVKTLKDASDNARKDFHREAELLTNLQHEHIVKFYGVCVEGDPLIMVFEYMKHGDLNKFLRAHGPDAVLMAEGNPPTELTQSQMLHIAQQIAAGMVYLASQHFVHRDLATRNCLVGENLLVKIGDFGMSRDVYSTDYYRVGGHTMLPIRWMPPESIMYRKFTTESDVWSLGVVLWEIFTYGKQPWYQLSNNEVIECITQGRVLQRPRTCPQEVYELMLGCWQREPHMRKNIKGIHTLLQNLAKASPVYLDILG
To be noted: TrkB(h), read-out: Inhibition rate (%). The procedure, abridged: as §1

Assay [4] addresses T4, 380 human recombinant protein kinases (Homo sapiens, UniProt Q8TF76).
T4 construct: purchased Eurofins (Celle Lévescault)
T4 sequence (Q8TF76 1-798): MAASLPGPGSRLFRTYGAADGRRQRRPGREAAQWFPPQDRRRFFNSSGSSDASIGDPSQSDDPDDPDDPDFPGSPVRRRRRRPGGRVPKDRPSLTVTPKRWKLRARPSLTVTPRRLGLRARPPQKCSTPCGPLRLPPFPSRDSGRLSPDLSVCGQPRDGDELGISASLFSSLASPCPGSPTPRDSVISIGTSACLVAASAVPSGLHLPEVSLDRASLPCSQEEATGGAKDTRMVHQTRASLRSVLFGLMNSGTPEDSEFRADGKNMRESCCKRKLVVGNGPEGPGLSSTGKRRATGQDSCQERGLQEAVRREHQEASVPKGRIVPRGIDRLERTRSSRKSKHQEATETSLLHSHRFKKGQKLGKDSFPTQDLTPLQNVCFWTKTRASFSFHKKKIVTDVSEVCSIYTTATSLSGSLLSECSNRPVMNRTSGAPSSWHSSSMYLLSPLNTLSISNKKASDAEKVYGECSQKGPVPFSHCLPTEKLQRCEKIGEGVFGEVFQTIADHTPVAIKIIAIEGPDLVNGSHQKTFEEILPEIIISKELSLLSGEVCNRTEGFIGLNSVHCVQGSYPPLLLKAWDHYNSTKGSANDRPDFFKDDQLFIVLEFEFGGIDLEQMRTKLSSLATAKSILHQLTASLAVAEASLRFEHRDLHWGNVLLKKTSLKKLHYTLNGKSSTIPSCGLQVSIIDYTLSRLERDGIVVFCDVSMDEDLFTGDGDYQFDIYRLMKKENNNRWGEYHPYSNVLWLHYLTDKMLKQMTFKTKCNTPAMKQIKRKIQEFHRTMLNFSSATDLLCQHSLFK
Conditions: Haspin(h), read-out: Inhibition rate. The procedure, abridged: as §1

`C=CC(=O)Nc1cc(-c2cc(-c3cc4c([nH]3)CCNC4=O)ccn2)ccc1OC(F)(F)F` [compound 11]: the inhibition at 0.01 µM in assay [1] (10 nM) was -11%; in assay [2] (10 nM), -12%; in assay [3] (10 nM) it was -6%; in assay [4] (10 nM) it was 1%. For the same compound, the inhibition at 0.1 µM in assay [1] (100 nM) is -3%; in assay [2] (100 nM) it was 12%; in assay [3] (100 nM) it was -9%; in assay [4] (100 nM) it was 11%. The inhibition at 1 µM was 1% in assay [1] (1000 nM), 41% in assay [2] (1000 nM), -20% in assay [3] (1000 nM) and 46% in assay [4] (1000 nM).
